Results: publication PMC11067372, “Evaluation of the antiplasmodial efficacy of synthetic 2,5-diphenyloxazole analogs of compounds naturally derived from Oxytropis lanata” (International Journal for Parasitology: Drugs and Drug …, 2024)

Assays:
P. falciparum 3D7 [1] = experiment: IC50 speed assay (24, 48, 72 h); type: cell-based, Plasmodium falciparum; settings: P. falciparum 3D7; for Speed of action (IC50 speed assay): IC50 at 24, 48, 72 h compared; for IC50: Plasmodium falciparum
Procedure: (§1) The D-sorbitol method (CAS: 50-70-4, Wako, Osaka, Japan) was employed to synchronize parasites, resulting in the attainment of ≥90% ring-stage parasites. These synchronized parasites were then utilized for the experiments within a 2-h window. The assay was performed as follows. First, 50 μL of synchronized parasites with 0.5% parasitemia and 2% hematocrit were added to individual wells of a 96-well plate. Then, 50 μL of the test compounds was introduced to each well. […] Wells containing only test compounds and erythrocytes were included for background correction. […] After the designated incubation time, 100 μL of lysis buffer containing 0.02% (v/v) SYBR Green I was added to each well, the contents of the well were mixed by pipetting, and the plate was incubated in the dark at room temperature for 2 h. […] This assay was repeated four times at each concentration, and the resulting inhibitory values represent the average from three independent trials.

[2] = In vitro toxicity to human cells (cell viability assay); type: cell-based; settings: human foreskin fibroblasts (HFFs), average ± SD, three independent experiments
Procedure: HFF cells are selected for cytotoxicity testing in this study, providing a physiologically relevant model for the evaluation of drug interactions with human cells. […] This designation makes them a suitable model for the investigation of cellular processes and their sensitivity to toxic substances, which is crucial for the early identification of potential adverse effects of drugs during the development process.
(§2) The IC50 or CC50 values were determined from three independent experiments by plotting the logarithmic concentration of the compound against the percent parasite inhibition or cell growth inhibition, respectively. Nonlinear regression analysis was conducted using GraphPad Prism 10 (GraphPad Software, Inc., La Jolla, CA, USA). Comparisons between groups were evaluated using either one-way or two-way ANOVA followed by Tukey's or Fisher's multiple comparisons tests. A p-value of <0.05 was considered to indicate statistical significance and is denoted by an asterisk or a symbol. The meaning of each symbol is specified in the corresponding figure legend alongside the name of the employed test.

P. falciparum 3D7 [3] = experiment: In vitro inhibition of P. falciparum 3D7 (SYBR Green I-based fluorescence assay); type: cell-based, Plasmodium falciparum; design: logIC50: unit not given here; settings: for IC80 / IC50: Plasmodium falciparum; for IC80: concentration used in the 72-h exposure assay; for logIC50: base-10 log-transformed IC50 against P. falciparum 3D7
Procedure: The cultures were maintained in an incubator under specific conditions: 37 °C under 5% CO2 and 5% O2.
as §1
as §2, with “A p-value of <0.05 was considered to indicate statistical significance and is denoted by an asterisk or a symbol.” left out

[4] = 24 h incubation, read-out: IC50 24 h
[5] = 48 h incubation, read-out: IC50 48 h
[6] = 72 h incubation, read-out: IC50 72 h
[7] = Table S2, P. falciparum 3D7, value used for SAR analysis, read-out: IC50
[8] = chloroquine-sensitive strain 3D7, 72 h incubation, average ± SD, three independent experiments, read-out: IC50 P. falciparum 3D7

With COc1cccc(-c2ncc(-c3ccccc3O)o2)c1OC [Compound 31, 2-(2′,3′-dimethoxyphenyl)-5-(2″-hydroxyphenyl)oxazole] the “Speed of action (IC50 speed assay)” value (P. falciparum 3D7 [1]) was “slow-acting”, the IC50 (P. falciparum 3D7 [1]; [4]) was 45.2 ± 10.6 µM and the IC50 (P. falciparum 3D7 [1]; [5]) was 18.8 ± 1.86 µM. For the same molecule, the IC50 (P. falciparum 3D7 [1]; [6]) was 8.37 ± 1.28 µM, the CC50 [2] was over 336 µM and the IC80 (P. falciparum 3D7 [3]; P. falciparum 3D7) was 18.1 µM. The IC50 (P. falciparum 3D7 [3]; [7]) was 8.37 µM, the IC50 (P. falciparum 3D7 [3]; [8]) was 8.37 ± 1.28 µM and the logIC50 (P. falciparum 3D7 [3]; Table S2) was 0.9226.
In the case of COc1cccc(-c2ncc(-c3ccccc3OCc3ccccc3)o2)c1OC [Compound 32, 2-(2′,3′-dimethoxyphenyl)-5-(2″-benzyloxyphenyl)oxazole], the “Speed of action (IC50 speed assay)” value (P. falciparum 3D7 [1]) is reported as “slow-acting”, the IC50 (P. falciparum 3D7 [1]; [4]) is reported as 31.2 ± 4.13 µM and the IC50 (P. falciparum 3D7 [1]; [5]) is reported as 33.4 ± 2.67 µM. It also gave an IC50 (P. falciparum 3D7 [1]; [6]) of 6.25 ± 1.39 µM, a CC50 [2] of over 258 µM and an IC80 (P. falciparum 3D7 [3]; P. falciparum 3D7) of 11.7 µM. For the same molecule, the IC50 (P. falciparum 3D7 [3]; [7]) was 6.25 µM, the IC50 (P. falciparum 3D7 [3]; [8]) was 6.25 ± 1.39 µM and the logIC50 (P. falciparum 3D7 [3]; Table S2) was 0.7961.
